Results reported in patent US9913808B2, “Injectable pharmaceutical compositions for the treatment of joints” (priority 2010, dated 2018).

System: synovial membrane of knee joints of rabbits
Assay: Intra-articular injection into rabbit knee joints, histological scoring of the synovial membrane after 24 hours
Type: in vivo
Settings: for Prevention of irritation on intra-articular injection (in words): glycerol and glucitol in comparable circumstances, data not shown
Description: After 24 hours the rabbits were sacrificed, the joints were removed and histological studies of the synnovial membrane were carried out. Each of the following histological findings was scored 0 to 3. a. Synovial lining hyperplasia b. Presence of Fibrin c. Inflammatory infiltration d. Necrosis […]

[1] = rabbit knee, intra-articular injection of the solution itself, sacrifice 24 h after injection, sulphate
[2] = rabbit knee, intra-articular injection of the solution itself, sacrifice 24 h after injection

CCCCCCCCCCCCOS(=O)(=O)[O-].[Na+] [0.2% SLS in saline, sodium lauryl sulphate]
Histological score of synovial membrane (synovial lining hyperplasia, fibrin, inflammatory infiltration, necrosis, each scored 0 to 3), Mean [1]: 1.4

CCCCCCCCCCCCOS(=O)(=O)[O-].[Na+] [0.5% SLS in saline (positive control), sodium lauryl sulphate]
Histological score of synovial membrane (synovial lining hyperplasia, fibrin, inflammatory infiltration, necrosis, each scored 0 to 3), Mean (rabbit knee, intra-articular injection of the solution itself, sacrifice 24 h after injection, listed as 0.5% SLS in saline, sulphate): 5.8 | Histological score of synovial membrane (synovial lining hyperplasia, fibrin, inflammatory infiltration, necrosis, each scored 0 to 3), Mean [1]: 5.8

OC[C@@H](O)[C@H](O)[C@@H](O)CO [4.5% Xylitol in distilled water, Xylitol]
Histological score of synovial membrane (synovial lining hyperplasia, fibrin, inflammatory infiltration, necrosis, each scored 0 to 3), Mean [2]: 1.4

OC[C@@H](O)[C@@H](O)[C@H](O)[C@H](O)CO [5.4% Mannitol in distilled water, Mannitol]
Histological score of synovial membrane (synovial lining hyperplasia, fibrin, inflammatory infiltration, necrosis, each scored 0 to 3), Mean [2]: 3.4 | Prevention of irritation on intra-articular injection (in words) (rabbit knee): does not prevent irritation

OC[C@@H](O)[C@@H](O)[C@H](O)[C@@H](O)CO [glucitol]
Prevention of irritation on intra-articular injection (in words) (rabbit knee): lack of prevention of irritation

OCC(O)CO [glycerol]
Prevention of irritation on intra-articular injection (in words) (rabbit knee): lack of prevention of irritation

sodium Hyaluronate [1% sodium Hyaluronate in saline]
Histological score of synovial membrane (synovial lining hyperplasia, fibrin, inflammatory infiltration, necrosis, each scored 0 to 3), Mean (rabbit, in vivo): 1.0
